Source: paper PMC10224536 (Molecules, 2023)

Experiments:
Aβ = settings: FDA-approved Aβ PET tracers; cited from earlier work
[1] = target: T1, synthetic human Aβ1-42 fibrils (Homo sapiens, UniProt P05067); assay: Competition binding assay against [^3H]SIL26 on Aβ1-42 fibrils
T1 construct: Synthetic lyophilized human Aβ1-42 peptide; purchased EMC Microcollections, Tuebingen, Germany; host or cells: chemical synthesis
Method: (§1) The generation of Aβ1-42 fibrils was adapted from Bagchi et al. and described by Kuebler et al.. Synthetic lyophilized human Aβ1-42 peptide (5 mg) with >90% purity (EMC Microcollections, Tuebingen, Germany) was dissolved in DMSO (221.5 µL). […] . The monomers were incubated in an Eppendorf Thermomixer at 37 °C with shaking at 800 rpm for 72 h to induce aggregation. Generated fibrils were sonicated for three minutes in a water bath (Elmasonic S 60 H, Elma Schmidbauer GmbH, Singen, Germany). The final products were aliquoted, frozen on dry ice, and stored at −80 °C until use.
(§2) Plates were incubated on a shaker (MaxQ 6000, Thermo Fisher Scientific Inc., Marietta, OH, USA) at 50 rpm for 2 h at 37 °C, covered by removable sealing tape (PerkinElmer, Waltham, MA, USA). Vacuum filtration and read-out were performed as previously reported. Briefly, a glass fiber Filtermat B (PerkinElmer, Waltham, MA, USA) incubated with 0.5% polyethylenimine (PEI; Sigma Aldrich Chemie GmbH, Munich, Germany) for 30 min at 4 °C prior to filter harvesting was used with a FilterMate Harvester (PerkinElmer, Waltham, MA, USA). Melt-on scintillator sheets (MeltiLex B/HS, PerkinElmer, Waltham, MA, USA) were melted onto dried filters. Accumulation of tritium was counted in a liquid scintillation Wallac MicroBeta TriLux counter (PerkinElmer, Waltham, MA, USA) at two minutes/well.
(§3) . Data points were fitted using non-linear regression analysis in GraphPad Prism (GraphPad Software, Inc., Version 8.4.0, San Diego, CA, USA).

[2] = target: T1, synthetic human Aβ1-42 fibrils; assay: Competition binding assay against [^3H]MODAG−001 on Aβ1-42 fibrils; settings: competition vs 1 nM [^3H]MODAG−001, Aβ1-42 fibrils 1 µM; mean ± SEM; read-out: Aβ—Ki [^3H]MODAG−001
Method: as §1, §2, §3

[3] = target: T2, human recombinant αSYN fibrils (Homo sapiens, UniProt P37840); assay: Competition binding assay against [^3H]SIL26 on αSYN fibrils
Method: (§4) The concentrations of αSYN fibrils and Aβ1-42 fibrils as above were used.
(§5) Plates were incubated on a shaker (MaxQ 6000, Thermo Fisher Scientific Inc., Marietta, OH, USA) at 50 rpm for 2 h at 37 °C, covered by removable sealing tape (PerkinElmer, Waltham, MA, USA). Vacuum filtration and read-out were performed as previously reported [18]. Briefly, a glass fiber Filtermat B (PerkinElmer, Waltham, MA, USA) incubated with 0.5% polyethylenimine (PEI; Sigma Aldrich Chemie GmbH, Munich, Germany) for 30 min at 4 °C prior to filter harvesting was used with a FilterMate Harvester (PerkinElmer, Waltham, MA, USA). Melt-on scintillator sheets (MeltiLex B/HS, PerkinElmer, Waltham, MA, USA) were melted onto dried filters. Accumulation of tritium was counted in a liquid scintillation Wallac MicroBeta TriLux counter (PerkinElmer, Waltham, MA, USA) at two minutes/well.

[4] = target: T2, human recombinant αSYN fibrils; assay: Competition binding assay against [^3H]MODAG−001 on αSYN fibrils; settings: for αSYN—Ki [^3H]MODAG−001: competition vs 1 nM [^3H]MODAG−001, αSYN fibrils 50 nM, mean ± SEM
Method: as §4, §5

αSYN = settings: carbon-11 labeled PET tracer; cited from earlier work
[5] = competition vs [^3H]SIL26 (7 nM), αSYN fibrils 35 nM, mean ± SEM

T1 sequence (P05067 672-713 limits assumed): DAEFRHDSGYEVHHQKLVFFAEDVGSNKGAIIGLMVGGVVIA

Row | Structure (SMILES) | Ki [1] [µM] | Ki [2] [µM] | Ki [3] [µM] | Ki [4] [µM] | other results
1 | CNc1ccc(/C=C/c2ccc(OCCOCCOCCF)cc2)cc1 [Florbetaben] | – | – | – | – | Ki (Aβ): 0.0067 ± 0.0003 µM
2 | CNc1ccc(-c2nc3ccc(O)cc3s2)cc1F [Flutemetamol] | – | – | – | – | Ki (Aβ): 0.00074 ± 0.00038 µM
3 | CN(C)c1ccc(-c2cc(-c3cccc(Br)c3)[nH]n2)cc1 [[^11C]anle253b] | – | – | – | – | IC50 (αSYN): 0.0016 µM
4 | CNc1ccc(/C=C/c2ccc(OCCOCCOCCF)nc2)cc1 [Florbetapir] | – | – | – | – | Kd (Aβ): 0.00372 ± 0.0003 µM
5 | CN(C)c1ccc(-c2cc(-c3ccnc(Br)c3)n[nH]2)cc1 [MODAG−001, reference compound] | – | – | – | – | Kd (αSYN): 0.0006 ± 0.0001 µM; Ki ([3]; read-out: αSYN—Ki [^3H]SIL26, competition vs [^3H]SIL26 (7 nM), αSYN fibrils 35 nM, mean ± SEM): 0.0108 µM

More lines, main results first:

Row | Ki [1] [µM] | Ki [2] [µM] | Ki [3] [µM] | Ki [4] [µM] | Structure (SMILES) | other results
6 | 0.0258 ± 0.0058 | 0.0077 ± 0.0017 | > 0.4 | 0.144 ± 0.0495 | FCCOc1ccc2c(c1)Sc1cc(-c3cc(-c4ccccc4)n[nH]3)ccc1N2 [DAP2a, 3-(2-Fluoroethoxy)-7-(3-phenyl-1H-pyrazol-5-yl)-10H-phenothiazine] | –
7 | 0.0658 ± 0.0564 | 0.0122 ± 0.0017 | > 0.4 | 0.107 ± 0.0314 | FCCOc1ccc2c(c1)Sc1cc(-c3cc(-c4ccccn4)n[nH]3)ccc1N2 [DAP2b, 3-(2-Fluoroethoxy)-7-(3-(pyridin-2-yl)-1H-pyrazol-5-yl)-10H-phenothiazine] | –
8 | 0.0076 | 0.0103 ± 0.0008 | 0.0901 ± 0.0568 | 0.0699 ± 0.0149 | COc1ccc2c(c1)Sc1cc(-c3cc(-c4ccccn4)n[nH]3)ccc1N2 [DAP1b, 3-Methoxy-7-(3-(pyridin-2-yl)-1H-pyrazol-5-yl)-10H-phenothiazine] | –
9 | – | > 0.4 | – | – | COc1cccc(Sc2cc(-c3cc(-c4ccccn4)n[nH]3)ccc2N)c1 [DAP3b, 2-((3-Methoxyphenyl)thio)-4-(3-(pyridin-2-yl)-1H-pyrazol-5-yl)aniline] | αSYN—Ki [^3H]SIL26 [3, 5]: no competition ^a; αSYN—Ki [^3H]MODAG−001 [4]: no competition
10 | 0.0031 ± 0.0021 | 0.008 ± 0.0013 | > 0.4 | 0.212 ± 0.0938 | FCCOc1ccc2c(c1)Sc1cc(-c3cc(-c4cccc(F)c4)n[nH]3)ccc1N2 [DAP2c, 3-(2-Fluoroethoxy)-7-(3-(3-fluorophenyl)-1H-pyrazol-5-yl)-10H-phenothiazine] | –
11 | 0.0107 | 0.0105 ± 0.0009 | 0.186 ± 0.145 | 0.289 ± 0.159 | COc1ccc2c(c1)Sc1cc(-c3cc(-c4ccccc4)n[nH]3)ccc1N2 [DAP1a, 3-Methoxy-7-(3-phenyl-1H-pyrazol-5-yl)-10H-phenothiazine] | –
12 | 0.001 | 0.0159 ± 0.0024 | > 0.4 | > 0.4 | COc1ccc2c(c1)Sc1cc(-c3cc(-c4cccc(F)c4)n[nH]3)ccc1N2 [DAP1c, 3-(3-(3-Fluorophenyl)-1H-pyrazol-5-yl)-7-methoxy-10H-phenothiazine] | –
13 | 0.0861 | > 0.4 | – | – | COc1cccc(Sc2cc(-c3cc(-c4ccccc4)n[nH]3)ccc2N)c1 [DAP3a, 2-((3-Methoxyphenyl)thio)-4-(3-phenyl-1H-pyrazol-5-yl)aniline] | αSYN—Ki [^3H]SIL26 [3, 5]: no competition ^a; αSYN—Ki [^3H]MODAG−001 [4]: no competition
14 | – | > 0.4 | – | – | COc1cccc(Sc2cc(-c3cc(-c4cccc(F)c4)n[nH]3)ccc2N)c1 [DAP3c, 4-(3-(3-Fluorophenyl)-1H-pyrazol-5-yl)-2-((3-methoxyphenyl)thio)aniline] | αSYN—Ki [^3H]SIL26 [3, 5]: no competition ^a; αSYN—Ki [^3H]MODAG−001 [4]: no competition
